Source: patent publication US7442801B2, “Pyrazole compound” (Sumitomo Chemical Company, Limited, priority 2003, dated 2008)

System: Tetranychus urticae
Assay: Test Example 1: Controlling Rate against Tetranychus urticae on brush bean, spray
Format: in vivo
Settings: 500 ppm, 30 ml sprayed on brush bean (Phaseolus vulgaris) with female adults
Experimental: Each of the present compounds (2) to (15), (17) to (33), (36) to (40) and the comparative compound described below was formulated according to Formulation Example 5, and each formulations was diluted with water so that the concentration of the present compound or the comparative compound came to 500 ppm.
About twenty female adults of Tetranychus urticae were set free on brush bean (Phaseolus vulgaris) in the primary leaf stage, which had been potted in a plastic cup for 7 days after the seeding. After 1 day, a 30 ml of the diluted formulation described-above was sprayed over the plant. On the 8th and 13th day after the application, the numbers of lived Tetranychus urticae on the leaf of brush bean plant were examined, and the Controlling Rates were calculated by the following scheme. Controlling Rate=100×{1−(a number of lived Tetranychus urticae in the treatment)/(a number of lived Tetranychus urticae in the non-treatment)}

Cc1nn(C)c(Oc2ccc(Oc3ccc(C(F)(F)F)cc3)cc2)c1C=NOCc1ccccc1 [comparative compound]
Controlling Rate (8th day after the application): less than 30% | Controlling Rate (13th day after the application): less than 30%
